Our source for the IC50 values is patent US20240317735A1, “HYDROISOQUINOLINE OR HYDRONAPHTHYRIDINE COMPOUNDS FOR THE TREATMENT OF AUTOIMMUNE DISEASE” (Hoffmann-La Roche Inc., priority 2020, published 2024).

This test deals with T1, human TLR8 (Homo sapiens, UniProt Q9NR97).
T1 construct: host or cells: HEK293 (HEK-Blue hTLR8)
T1 sequence (Q9NR97 27-1041): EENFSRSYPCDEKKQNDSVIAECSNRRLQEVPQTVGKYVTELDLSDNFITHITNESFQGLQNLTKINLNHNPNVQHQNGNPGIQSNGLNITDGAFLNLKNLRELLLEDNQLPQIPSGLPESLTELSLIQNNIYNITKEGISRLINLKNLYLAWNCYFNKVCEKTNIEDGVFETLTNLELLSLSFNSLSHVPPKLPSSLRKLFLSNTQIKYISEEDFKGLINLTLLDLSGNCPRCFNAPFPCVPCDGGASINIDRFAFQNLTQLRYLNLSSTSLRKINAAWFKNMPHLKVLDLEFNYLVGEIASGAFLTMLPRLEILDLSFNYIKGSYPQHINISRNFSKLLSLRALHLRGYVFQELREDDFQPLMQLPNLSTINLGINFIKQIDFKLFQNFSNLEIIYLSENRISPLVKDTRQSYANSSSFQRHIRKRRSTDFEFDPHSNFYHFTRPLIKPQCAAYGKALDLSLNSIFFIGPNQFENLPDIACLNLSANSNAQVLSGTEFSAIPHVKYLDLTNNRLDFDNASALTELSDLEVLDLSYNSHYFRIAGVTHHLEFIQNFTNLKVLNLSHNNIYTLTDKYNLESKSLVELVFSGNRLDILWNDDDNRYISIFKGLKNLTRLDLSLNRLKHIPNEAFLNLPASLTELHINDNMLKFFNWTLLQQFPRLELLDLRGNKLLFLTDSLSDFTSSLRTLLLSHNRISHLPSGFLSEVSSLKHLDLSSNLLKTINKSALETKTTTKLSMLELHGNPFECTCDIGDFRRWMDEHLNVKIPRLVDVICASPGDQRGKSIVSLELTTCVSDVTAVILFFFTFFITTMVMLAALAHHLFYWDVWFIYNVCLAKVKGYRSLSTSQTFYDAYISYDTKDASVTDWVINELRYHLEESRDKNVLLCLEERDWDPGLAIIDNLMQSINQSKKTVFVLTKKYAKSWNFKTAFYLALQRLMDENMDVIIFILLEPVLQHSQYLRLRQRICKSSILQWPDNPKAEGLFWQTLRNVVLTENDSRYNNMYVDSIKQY
Nature of the test: HEK293-Blue-hTLR-8 cells assay (SEAP reporter, R848 stimulation). Format: cell-based. The note with it: HEK293-Blue-hTLR8 cells, R848, 20 hrs; read-out: HEK/hTLR8 IC50. Here is the method:
The following tests were carried out in order to determine the activity of the compounds of formula (I) and (Ia) in HEK293-Blue-hTLR-7/8/9 cells assay.
A stable HEK293-Blue-hTLR-8 cell line was purchased from InvivoGen (Cat. #: hkb-htlr8, San Diego, California, USA). These cells were originally designed for studying the stimulation of human TLR8 by monitoring the activation of NF-κB. A SEAP (secreted embryonic alkaline phosphatase) reporter gene was placed under the control of the IFN-β minimal promoter fused to five NF-κB and AP-1-binding sites. The SEAP was induced by activating NF-κB and AP-1 via stimulating HEK-Blue hTLR8 cells with TLR8 ligands. Therefore the reporter expression was declined by TLR8 antagonist under the stimulation of a ligand, such as R848, for incubation of 20 hrs. The cell culture supernatant SEAP reporter activity was determined using QUANTI-Blue™ kit (Cat. #: rep-qb1, Invivogen, San Diego, Ca, USA) at a wavelength of 640 nm, a detection medium that turns purple or blue in the presence of alkaline phosphatase.
HEK293-Blue-hTLR8 cells were incubated at a density of 250,000˜450,000 cells/mL in a volume of 170 μL in a 96-well plate in Dulbecco's Modified Eagle's medium (DMEM) containing 4.5 g/L glucose, […] penicillin, […], […] Normocin, 2 mM L-glutamine, 10% (v/v) heat-inactivated fetal bovine serum with addition of 20 μL test compound in a serial dilution in the presence of final DMSO at 1% and 10 μL of 60 uM R848 in above DMEM, perform incubation under 37° C. in a C02 incubator for 20 hrs. Then 20 μL of the supernatant from each well was incubated with 180 μL Quanti-blue substrate solution at 37° C. for 2 hrs and the absorbance was read at 620-655 nm using a spectrophotometer. The signaling pathway that TLR8 activation leads to downstream NF-κB activation has been widely accepted, and therefore similar reporter assay was modified for evaluating TLR8 antagonist.
Take `C[C@H]1CN(c2ccnc3c2cnn3C)Cc2ccc(N3CC4CNC[C@H]4C3=O)cc21` (relative stereo) [Example 17, cis-5-[(4R)-4-methyl-2-(1-methylpyrazolo[3,4-b]pyridin-4-yl)-3,4-dihydro-1H-isoquinolin-6-yl]-1,2,3,3a,6,6a-hexahydropyrrolo[3,4-c]pyrrol-4-one]: the IC50 turned out to be 11 nM.
The result for `C[C@H]1CN(c2ccnc3c2cnn3C)Cc2ccc(N3C[C@@H]4CCNCC4C3=O)cc21` (relative stereo) [Example 55, cis-2-[(4R)-4-methyl-2-(1-methylpyrazolo[3,4-b]pyridin-4-yl)-3,4-dihydro-1H-isoquinolin-6-yl]-3a,4,5,6,7,7a-hexahydro-1H-pyrrolo[3,4-c]pyridin-3-one] reads 6 nM.
`C[C@H]1CN(c2ccnc3c2cnn3C)Cc2ccc(N3C[C@]4(CCNC4)CC3=O)cc21` (single isomer, unassigned) [Example 54]: the IC50 stood at 5 nM.
`C[C@H]1CN(c2ccnc3c2cnn3C)Cc2ccc(N3C[C@H]4CCNC[C@H]4C3=O)cc21` (single isomer, unassigned) [Example 56]: the IC50 was 7 nM.
Under `C[C@H]1CN(c2ccnc3c2cnn3C)Cc2ccc(N3C[C@@H]4CCNC[C@@H]4C3=O)cc21` (single isomer, unassigned) [Example 57] stands 24 nM; under `Cc1cc(N2Cc3ccc(N4CCNCC4)cc3[C@@H](C)C2)c2cnn(C)c2n1` [Example 2, (4R)-2-(1,6-dimethylpyrazolo[3,4-b]pyridin-4-yl)-4-methyl-6-piperazin-1-yl-3,4-dihydro-1H-isoquinoline], 1 nM; under `CC1CN(c2ccnc3c2cnn3C)Cc2ccc(N3CCC4(CCNCC4)CC3)cc21` (stereo not shown) [Example 4, 3-[4-methyl-2-(1-methylpyrazolo[3,4-b]pyridin-4-yl)-3,4-dihydro-1H-isoquinolin-6-yl]-3,9-diazaspiro[5.5]undecane], 7 nM.
The result for `Cc1cc(N2Cc3ccc(N4CCC5(CCNCC5)CC4)cc3C(C)C2)c2cnn(C)c2n1` (stereo not shown) [Example 5, 3-[2-(1,6-dimethylpyrazolo[3,4-b]pyridin-4-yl)-4-methyl-3,4-dihydro-1H-isoquinolin-6-yl]-3,9-diazaspiro[5.5]undecane] reads 10 nM; that for `Cn1ncc2c(N3Cc4ccc(N5CCC6(CCNCC6)CC5)cc4C(C)(C)C3)ccnc21` [Example 6, 3-[4,4-dimethyl-2-(1-methylpyrazolo[3,4-b]pyridin-4-yl)-1,3-dihydroisoquinolin-6-yl]-3,9-diazaspiro[5.5]undecane], 18 nM; that for `C[C@H]1CN(c2ccnc3c2cnn3C)Cc2ccc(N3CCN(C(=O)C4CCNCC4)CC3)cc21` [Example 7, 4-piperidyl-[4-[(4R)-4-methyl-2-(1-methylpyrazolo[3,4-b]pyridin-4-yl)-3,4-dihydro-1H-isoquinolin-6-yl]piperazin-1-yl]methanone], 17 nM.
The result for `C[C@H]1CN(c2ccnc3c2cnn3C)Cc2ccc(N3CCN(C(=O)C4CCCN4)CC3)cc21` (stereo partly drawn) [Example 8, pyrrolidin-2-yl-[4-[(4R)-4-methyl-2-(1-methylpyrazolo[3,4-b]pyridin-4-yl)-3,4-dihydro-1H-isoquinolin-6-yl]piperazin-1-yl]methanone] reads 6 nM.
Take `C[C@H]1CN(c2ccnc3c2cnn3C)Cc2ccc(N3CCN(c4cc5c(cn4)CCNC5)CC3)cc21` [Example 9, 7-[4-[(4R)-4-methyl-2-(1-methylpyrazolo[3,4-b]pyridin-4-yl)-3,4-dihydro-1H-isoquinolin-6-yl]piperazin-1-yl]-1,2,3,4-tetrahydro-2,6-naphthyridine]: the IC50 is 11 nM.
Under `C[C@H]1CN(c2ccnc3c2cnn3C)Cc2ccc(N3CCC(N4CCNCC4)CC3)cc21` [Example 10, (4R)-4-methyl-2-(1-methylpyrazolo[3,4-b]pyridin-4-yl)-6-(4-piperazin-1-yl-1-piperidyl)-3,4-dihydro-1H-isoquinoline] stands 1 nM; under `CO[C@@H]1CN(C2CCN(c3ccc4c(c3)[C@@H](C)CN(c3ccnc5c3cnn5C)C4)CC2)C[C@H]1N` [Example 11, (3R,4R)-4-methoxy-1-[1-[(4R)-4-methyl-2-(1-methylpyrazolo[3,4-b]pyridin-4-yl)-3,4-dihydro-1H-isoquinolin-6-yl]-4-piperidyl]pyrrolidin-3-amine], below 0.3 nM; under `C[C@H]1CN(c2ccnc3c2cnn3C)Cc2ccc(N3CCN(C(=O)C4CNCCO4)CC3)cc21` (stereo partly drawn) [Example 12, morpholin-2-yl-[4-[(4R)-4-methyl-2-(1-methylpyrazolo[3,4-b]pyridin-4-yl)-3,4-dihydro-1H-isoquinolin-6-yl]piperazin-1-yl]methanone], 8 nM.
`C[C@H]1CN(c2ccnc3c2cnn3C)Cc2ccc(N3CCC(O)(CN(C)C)CC3)cc21` [Example 13, 4-[(dimethylamino)methyl]-1-[(4R)-4-methyl-2-(1-methylpyrazolo[3,4-b]pyridin-4-yl)-3,4-dihydro-1H-isoquinolin-6-yl]piperidin-4-ol]: the IC50 worked out at 2 nM.
Under `Cc1cc(N2Cc3ccc(N4CCC(O)(CN(C)C)CC4)cc3[C@@H](C)C2)c2cnn(C)c2n1` [Example 14, 4-[(dimethylamino)methyl]-1-[(4R)-2-(1,6-dimethylpyrazolo[3,4-b]pyridin-4-yl)-4-methyl-3,4-dihydro-1H-isoquinolin-6-yl]piperidin-4-ol] stands 1 nM.
The result for `CC1CN(c2ccc3c(c2)[C@@H](C)CN(c2ccnc4c2cnn4C)C3)CCN1` (stereo partly drawn) [Example 15, (4R)-4-methyl-6-(3-methylpiperazin-1-yl)-2-(1-methylpyrazolo[3,4-b]pyridin-4-yl)-3,4-dihydro-1H-isoquinoline] reads 3 nM; that for `CCn1ncc2c(N3Cc4ccc(N5CCNCC5)cc4[C@@H](C)C3)ccnc21` [Example 22, (4R)-2-(1-ethylpyrazolo[3,4-b]pyridin-4-yl)-4-methyl-6-piperazin-1-yl-3,4-dihydro-1H-isoquinoline], 16 nM; that for `CO[C@@H]1CN(c2ccc3c(c2)[C@@H](C)CN(c2cc(C)nc4c2cnn4C)C3)C[C@H]1N` [Example 23, (3R,4R)-4-methoxy-1-[(4R)-2-(1,6-dimethylpyrazolo[3,4-b]pyridin-4-yl)-4-methyl-3,4-dihydro-1H-isoquinolin-6-yl]pyrrolidin-3-amine], 7 nM.
Regarding `C[C@H]1CN(c2ccnc3c2cnn3C)Cc2ccc(N3C[C@H]4CNCCN4C3=O)cc21` [Example 24, (8aR)-2-[(4R)-4-methyl-2-(1-methylpyrazolo[3,4-b]pyridin-4-yl)-3,4-dihydro-1H-isoquinolin-6-yl]-1,5,6,7,8,8a-hexahydroimidazo[1,5-a]pyrazin-3-one], the IC50 was 2 nM.
For `C[C@H]1CN(c2ccnc3c2cnn3C)Cc2ccc(N3CC4(CCNCC4)OC3=O)cc21` [Example 26, 3-[(4R)-4-methyl-2-(1-methylpyrazolo[3,4-b]pyridin-4-yl)-3,4-dihydro-1H-isoquinolin-6-yl]-1-oxa-3,8-diazaspiro[4.5]decan-2-one], the IC50 came out at 10 nM.
